52 molecules from patent US8022225B2, “Triazole derivative” (Taisho Pharmaceutical Co., Ltd, priority 2004, dated 2011) can be followed below.

The target of this test is T1, human Edg-1(S1P1) (Homo sapiens, UniProt P21453).
T1 construct: expressed in transfected cells; host or cells: HEK-293
T1 sequence (P21453 whole entry): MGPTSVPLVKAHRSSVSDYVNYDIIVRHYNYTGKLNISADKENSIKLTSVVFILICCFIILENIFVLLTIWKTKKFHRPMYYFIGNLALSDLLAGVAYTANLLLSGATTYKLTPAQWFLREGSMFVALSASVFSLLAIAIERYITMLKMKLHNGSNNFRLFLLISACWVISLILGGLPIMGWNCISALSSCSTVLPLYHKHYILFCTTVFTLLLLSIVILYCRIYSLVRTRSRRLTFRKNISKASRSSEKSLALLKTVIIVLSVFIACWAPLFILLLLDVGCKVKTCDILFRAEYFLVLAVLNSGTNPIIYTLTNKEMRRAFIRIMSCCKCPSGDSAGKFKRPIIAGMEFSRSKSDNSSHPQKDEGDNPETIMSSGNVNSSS
The test is described as follows: Cell system binding test: inhibition of [3H]-S1P binding to Edg-1(S1P1) gene transferred HEK-293 cells. The following applies: 10 μM compound, [3H]-S1P 10 nM, read-out: Cell system binding test % inhibition (10 μM). On the procedure: Cells (1×10^5 cells/well) obtained as described above were seeded in poly-L-lysine-coated 96-well plates (Corning Incorporated), and then incubated in a 5% carbon dioxide gas incubator for 12 hours at 37° C. with the use of an MEM medium (Invitrogen Corporation) containing 100 U/mL of penicillin, 100 μg/mL of streptomycin, a 1% MEM nonessential amino acid solution, and 10% FCS. […] After the cells were washed twice with the buffer, they were solubilized with 100 μL of Opti Phase Supermix (produced by Perkin-Elmer), and measured for radioactivity by means of Micro Beta (produced by Perkin-Elmer).
Inhibition rate(%)=[1−(A−C)/(B−C)]×100
As for `CCn1c(SCc2ccc(C(C)(C)C)cc2)nnc1C(C)NS(=O)(=O)c1ccc(Cl)cc1` (stereo not shown) [Compound 89], the inhibition at 10 µM was found to be 89.3%. With `C=CCSc1nnc([C@@H](C)NS(=O)(=O)c2ccc(Cl)cc2)n1C` [Compound 92], the inhibition at 10 µM was 88.3%. For the molecule `C=CCSc1nnc(C(CC)NS(=O)(=O)c2ccc(Cl)cc2)n1C` (stereo not shown) [Compound 105], the inhibition at 10 µM was 71.5%. The value for `CCCC(NS(=O)(=O)c1ccc(Cl)cc1)c1nnc(SCc2ccccc2)n1C` (stereo not shown) [Compound 126] was 77%; that for `CCCC(NS(=O)(=O)c1ccc(Cl)cc1)c1nnc(SCc2ccc(C)cc2)n1C` (stereo not shown) [Compound 127] was 63.6%. Regarding `C=CCSc1nnc([C@@H](Cc2ccccc2)NS(=O)(=O)c2ccc(Cl)cc2)n1CCCC` [Compound 145], the inhibition at 10 µM turned out to be 46%. With `C=CCSc1nnc([C@@H](Cc2ccccc2)NS(=O)(=O)c2ccc(Cl)cc2)n1CC(C)C` [Compound 147], the inhibition at 10 µM was found to be 75.2%. The value for `C=CCSc1nnc([C@@H](Cc2ccccc2)NS(=O)(=O)c2ccc(Cl)cc2)n1C(C)CC` (stereo partly shown) [Compound 149] was 63.4%. The value for `C=CCSc1nnc([C@@H](Cc2ccccc2)NS(=O)(=O)c2ccc(Cl)cc2)n1CCOC` [Compound 151] was 41.6%; that for `C=CCSc1nnc([C@@H](Cc2ccccc2)NS(=O)(=O)c2ccc(Cl)cc2)n1CCN1CCOCC1` [Compound 153] was 26.8%. For `C=CCSc1nnc([C@@H](Cc2ccccc2)NS(=O)(=O)c2ccc(Cl)cc2)n1C1CCCC1` [Compound 164], the inhibition at 10 µM came out at 40.4%. As for `CCn1c([C@@H](C)NS(=O)(=O)c2ccc(Cl)cc2)nnc1[S+](C)[O-]` (stereo partly drawn) [Compound 180, 4-Chloro-N-{(1R)-1-[4-ethyl-5-(methylsulfinyl)-4H-1,2,4-triazol-3-yl]ethyl}benzenesulfonamide], the inhibition at 10 µM is 48.9%.

Take `CCn1c(OC)nnc1[C@@H](C)NS(=O)(=O)c1ccccc1Cl` [Compound 194]: the inhibition at 10 µM was determined as 85.6%. With `CCn1c(OC)nnc1[C@@H](C)NS(=O)(=O)c1c(Cl)cccc1Cl` [Compound 219], the inhibition at 10 µM turned out to be 95.9%. `CCn1c(OC)nnc1[C@@H](C)NS(=O)(=O)c1c(C)cc(C)cc1C` [Compound 225]: the inhibition at 10 µM came to 94%. Regarding `CCn1c(OC)nnc1[C@@H](C)NS(=O)(=O)c1ccc(S(C)(=O)=O)cc1` [Compound 228], the inhibition at 10 µM amounted to 93.9%. Consider `CCn1c(OC)nnc1[C@@H](C)NS(=O)(=O)Cc1ccccc1[N+](=O)[O-]` [Compound 234], for which the inhibition at 10 µM was 90.9%. Regarding `CCCCCCCCS(=O)(=O)N[C@H](C)c1nnc(OC)n1CC` [Compound 236], the inhibition at 10 µM was 98.9%.

Consider `CCCS(=O)(=O)N[C@H](C)c1nnc(OC)n1CC` [Compound 239], for which the inhibition at 10 µM amounted to 92.7%. Regarding `CCn1c(OC)nnc1[C@@H](C)NS(=O)(=O)Cc1ccccc1` [Compound 244], the inhibition at 10 µM worked out at 92.3%. The value for `CCn1c(OC)nnc1[C@@H](C)NS(=O)(=O)c1c(C)nn(C)c1Cl` [Compound 253] was 83.4%; that for `CCn1c(OC)nnc1[C@@H](C)NS(=O)(=O)c1c(C)noc1C` [Compound 254] was 84.6%. Regarding `CCn1c(OC)nnc1[C@@H](C)NS(=O)(=O)c1ccc(C(=O)OC)o1` [Compound 256], the inhibition at 10 µM stood at 95.6%. The value for `CCn1c(OC)nnc1[C@@H](C)NS(=O)(=O)c1ccccc1C(=O)OC` [Compound 259] was 86.8%; that for `CCn1c(OC)nnc1[C@@H](C)NS(=O)(=O)c1ccc(C(C)(C)CC)cc1` [Compound 271] was 89.6%. The value for `CCn1c(OC)nnc1[C@@H](C)NS(=O)(=O)c1ccccc1OC(F)(F)F` [Compound 276] was 88.9%. The value for `CCn1c(OC)nnc1[C@@H](C)NS(=O)(=O)c1ccc(Oc2ccccc2)cc1` [Compound 278] was 70.9%; that for `CCn1c(OC)nnc1[C@@H](C)NS(=O)(=O)c1ccc(F)cc1F` [Compound 279] was 101%; that for `CCn1c(OC)nnc1[C@@H](C)NS(=O)(=O)c1ccccc1F` [Compound 280] was 91%. Turning to `CCn1c(OC)nnc1[C@@H](C)NS(=O)(=O)c1ccccc1I` [Compound 283], the inhibition at 10 µM is 73.9%. As for `CCn1c(OC)nnc1[C@@H](C)NS(=O)(=O)Cc1ccc(Cl)cc1` [Compound 293], the inhibition at 10 µM worked out at 31.8%. As for `CCn1c(OC)nnc1[C@@H](C)NS(=O)(=O)Cc1ccc(F)cc1` [Compound 294], the inhibition at 10 µM is 64.5%. On to `CCn1c(OC)nnc1[C@@H](C)NS(=O)(=O)Cc1cccc(C(F)(F)F)c1` [Compound 295], for which the inhibition at 10 µM came out at 66.1%. The value for `CCn1c(OC)nnc1[C@@H](C)NS(=O)(=O)CC(c1ccccc1)c1ccccc1` [Compound 297] was 23.8%. For `CCn1c(OC)nnc1[C@@H](C)NS(=O)(=O)c1c(F)cccc1F` [Compound 298], the inhibition at 10 µM stood at 85.7%.

For the molecule `CCn1c(OC)nnc1[C@@H](C)NS(=O)(=O)c1cc(Cl)ccc1OC` [Compound 300], the inhibition at 10 µM is 95%.

For the molecule `CCn1c(OC)nnc1[C@@H](C)NS(=O)(=O)c1ccc(CCC(=O)OC)cc1` [Compound 301], the inhibition at 10 µM was 78.3%.

Regarding `CCn1c(OC)nnc1[C@@H](C)NS(=O)(=O)Cc1cccc([N+](=O)[O-])c1` [Compound 304], the inhibition at 10 µM is 79.8%. With `CCn1c(OC)nnc1[C@@H](C)NS(=O)(=O)Cc1cccc(Cl)c1` [Compound 305], the inhibition at 10 µM was found to be 86.5%. For `CCn1c(OC)nnc1[C@@H](C)NS(=O)(=O)c1cc(Cl)ccc1F` [Compound 316], the inhibition at 10 µM was found to be 92.9%. Turning to `CCn1c(OC)nnc1[C@@H](C)NS(=O)(=O)CCCOc1ccc(OC)cc1` [Compound 318], the inhibition at 10 µM is 68.5%.

In the case of `CCn1c(OC)nnc1[C@@H](C)NS(=O)(=O)Cc1ccccn1` [Compound 323], the inhibition at 10 µM came to 64.4%. The value for `CCn1c(OC)nnc1[C@@H](C)NS(=O)(=O)c1cccc(Oc2ccccc2OC)c1` [Compound 324] was 88.1%; that for `CCn1c(OC)nnc1[C@@H](C)NS(=O)(=O)Cc1cccnc1` [Compound 325] was 36.5%. The value for `CCn1c(OC)nnc1[C@@H](C)NS(=O)(=O)Cc1ccncc1` [Compound 329] was 38.5%; that for `CCn1c(OC)nnc1[C@@H](C)NS(=O)(=O)CCN1C(=O)c2ccccc2C1=O` [Compound 331] was 23.9%; that for `CCn1c(OC)nnc1[C@@H](C)NS(=O)(=O)c1ccccc1OC` [Compound 332] was 35.5%. The value for `CCn1c(OC)nnc1[C@@H](C)NS(=O)(=O)CC1CCCCC1` [Compound 333] was 92.8%. Turning to `CCCCCCCCCCS(=O)(=O)N[C@H](C)c1nnc(OC)n1CC` [Compound 334], the inhibition at 10 µM was 54.7%.

As for `CCn1c(OC)nnc1[C@@H](C)NS(=O)(=O)c1cnoc1C` [Compound 336], the inhibition at 10 µM worked out at 89.3%. The value for `CCn1c(OC)nnc1[C@@H](C)NS(=O)(=O)c1sc(C)nc1C` [Compound 339] was 92.1%; that for `CCn1c(OC)nnc1[C@@H](C)NS(=O)(=O)c1cccc2nsnc12` [Compound 340] was 77.5%.
